Key:
HCT-116 = assay: Antiproliferative activity against human HCT-116 cells assessed as inhibition of cell growth incubated for 48 hrs by CCK-8 assay; format: functional, cell-based; details: Homo sapiens, HCT-116, 48 h
HeLa [1] = assay: Antiproliferative activity against human HeLa cells assessed as inhibition of cell growth incubated for 48 hrs by CCK-8 assay; format: functional, cell-based; details: hela
MCF7 = assay: Antiproliferative activity against human MCF7 cells assessed as inhibition of cell growth incubated for 48 hrs by CCK-8 assay; format: functional, cell-based; details: Homo sapiens, MCF7, 48 h
A549 = assay: Antiproliferative activity against human A549 cells assessed as inhibition of cell growth incubated for 48 hrs by CCK-8 assay; format: functional, cell-based; details: Homo sapiens, A549, 48 h
HepG2 = assay: Antiproliferative activity against human HepG2 cells assessed as inhibition of cell growth incubated for 48 hrs by CCK-8 assay; format: functional, cell-based; details: Homo sapiens, HepG2, 48 h
PANC-1 = assay: Antiproliferative activity against human PANC-1 cells assessed as inhibition of cell growth incubated for 48 hrs by CCK-8 assay; format: functional, cell-based; details: panc-1
HeLa [2] = assay: Induction of apoptosis in human HeLa cells at 2 to 8 uM incubated for 48 hrs by annexin V-FITC/PI staining based flow cytometry relative to control; format: functional; details: dose 2-8 µM
[3] = Half life in BALB/c mouse plasma at 10 to 200 uM; format: ADME, cell-free; details: dose 10-200 µM
[4] = Acute toxicity in male BALB/c mouse assessed as animal death at 200 to 400 mg/kg,ip observed after 1 day; format: organism-based; details: in vivo, 24 h, dose 200-400 mg/kg
[5] = Acute toxicity in female BALB/c mouse assessed as animal death at 200 to 400 mg/kg,ip observed after 1 day; format: organism-based; details: in vivo, 24 h, dose 200-400 mg/kg
[6] = Acute toxicity in male BALB/c mouse assessed as animal death at 200 to 600 mg/kg,ip observed after 2 day; format: organism-based; details: in vivo, 48 h, dose 200-600 mg/kg
[7] = Acute toxicity in female BALB/c mouse assessed as animal death at 200 to 600 mg/kg,ip observed after 2 day; format: organism-based; details: in vivo, 48 h, dose 200-600 mg/kg
[8] = Acute toxicity in female BALB/c mouse assessed as animal death at 1000 mg/kg,ip observed after 2 day; format: organism-based; details: in vivo, 48 h
[9] = Acute toxicity in male BALB/c mouse assessed as animal death at 200 to 1000 mg/kg,ip observed after 3 days; format: organism-based; details: in vivo, 72 h, dose 200-1000 mg/kg, time 3 day
[10] = Acute toxicity in female BALB/c mouse assessed as animal death at 200 to 1000 mg/kg,ip observed after 3 days; format: organism-based; details: in vivo, 72 h, dose 200-1000 mg/kg, time 3 day
[11] = Acute toxicity in male BALB/c mouse assessed as animal death at 200 to 1000 mg/kg,ip observed for 4 to 15 days; format: organism-based; details: in vivo, dose lower 200 mg/kg, time lower 4 day, dose upper 1000 mg/kg, time upper 15 day
[12] = Acute toxicity in female BALB/c mouse assessed as animal death at 200 to 1000 mg/kg,ip observed for 4 to 15 days; format: organism-based; details: in vivo, dose lower 200 mg/kg, time lower 4 day, dose upper 1000 mg/kg, time upper 15 day
[13] = Acute toxicity in BALB/c mouse assessed as animal survival at 1000 mg/kg,ip observed after 14 days; format: organism-based; details: in vivo, time 14 day
[14] = Acute toxicity in BALB/c mouse assessed as animal survival at 800 mg/kg,ip observed after 14 days; format: organism-based; details: in vivo, time 14 day
[15] = Acute toxicity in BALB/c mouse assessed as animal survival at 600 mg/kg,ip observed after 14 days; format: organism-based; details: in vivo, time 14 day
[16] = Acute toxicity in BALB/c mouse assessed as animal survival at 400 mg/kg,ip observed after 14 days; format: organism-based; details: in vivo, time 14 day
[17] = Acute toxicity in BALB/c mouse assessed as animal survival at 200 mg/kg,ip observed after 14 days; format: organism-based; details: in vivo, time 14 day
[18] = Acute toxicity in BALB/c mouse assessed as lethal dose at ip administration observed after 14 days; format: organism-based; details: in vivo, time 14 day
[19] = Toxicity in BALB/c mouse xenografted with human HeLa cells assessed as change in body weight at 15 to 60 mg/kg,ip once daily for 14 days; format: organism-based; details: in vivo, 336 h, dose 15-60 mg/kg, time 14 day
[20] = Toxicity in BALB/c mouse xenografted with human HeLa cells assessed as histopathological change in heart at 15 to 60 mg/kg,ip once daily for 14 days by hematoxylin and eosin staining analysis; format: organism-based; details: in vivo, 336 h, dose 15-60 mg/kg, time 14 day
[21] = Toxicity in BALB/c mouse xenografted with human HeLa cells assessed as histopathological change in liver at 15 to 60 mg/kg,ip once daily for 14 days by hematoxylin and eosin staining analysis; format: organism-based; details: in vivo, 336 h, dose 15-60 mg/kg, time 14 day
[22] = Toxicity in BALB/c mouse xenografted with human HeLa cells assessed as histopathological change in spleen at 15 to 60 mg/kg,ip once daily for 14 days by hematoxylin and eosin staining analysis; format: organism-based; details: in vivo, 336 h, dose 15-60 mg/kg, time 14 day
[23] = Toxicity in BALB/c mouse xenografted with human HeLa cells assessed as histopathological change in lung at 15 to 60 mg/kg,ip once daily for 14 days by hematoxylin and eosin staining analysis; format: organism-based; details: in vivo, 336 h, dose 15-60 mg/kg, time 14 day
[24] = Toxicity in BALB/c mouse xenografted with human HeLa cells assessed as histopathological change in kidney at 15 to 60 mg/kg,ip once daily for 14 days by hematoxylin and eosin staining analysis; format: organism-based; details: in vivo, 336 h, dose 15-60 mg/kg, time 14 day

CCOC(=O)C[C@H]1CSC[C@]1(C(=O)OCC)n1cnc2c(Cl)nc(Cl)nc21 (racemic)
IC50 (HCT-116): 3.82 µM | IC50 (HeLa [1]): 2.8 µM | IC50 (MCF7): 5.54 µM | IC50 (A549): 46 µM | IC50 (HepG2): 32.7 µM | IC50 (PANC-1): 13 µM | Activity (HeLa [2]): 8.05% | half-life at up to 200 µM [3]: 3 h | Activity [4]: Non-Toxic | Activity [5]: Non-Toxic | Activity [6]: Non-Toxic | Activity [7]: Non-Toxic | Activity [8]: Non-Toxic | Activity [9]: Non-Toxic | Activity [10]: Non-Toxic | Activity [11]: Non-Toxic | Activity [12]: Non-Toxic | survival at 336 h [13]: 0% | survival at 336 h [14]: 10% | survival at 336 h [15]: 50% | survival at 336 h [16]: 100% | survival at 336 h [17]: 100% | LD50 at 336 h [18]: 613 mg/kg | Activity [19]: Non-Toxic | Activity [20]: Non-Toxic | Activity [21]: Non-Toxic | Activity [22]: Non-Toxic | Activity [23]: Non-Toxic | Activity [24]: Non-Toxic

— ChEMBL document CHEMBL5523757, “Discovery, Synthesis, and Activity Evaluation of Novel Five-Membered Sulfur-Containing Heterocyclic Nucleosides as Potential Anticancer Agents In Vitro and In Vivo” (J Med Chem, 2024)
